{"source": "patent US10716778B2", "about": "“Use of compounds that are able to increase the serum IGF-1 level for the preparation of a therapeutical composition for treatment of various disease states associated with a reduced IGF-1 serum level in humans and animals” (VEIJLEN N.V., priority 2003, dated 2020)", "key": {"athletes": {"system": "athletes", "test": "Performance and recovery of athletes (Example 6)", "type": "in vivo, human", "settings": "group that received IAA; 12 weeks intensive training; placebo performances decreased", "description": "Twenty athletes entered the study. Other medication was excluded from the research. The period of the treatment was 12 weeks. They were not allowed to take any other medication or food supplements. They continued their level of training. After 2 weeks, the training was intensified by 25%. At baseline, at the start, after 2 weeks, 4 weeks, 6 weeks, 8 weeks, 10 weeks and 12 weeks, IGF-1 and safety parameters (liver tests, hematology) were determined. The group was divided into two groups of ten athletes. Group A received IAA; group B got a placebo.\nThe following schedule was used for the supplements. 1 IAA capsule contained 10 mg IAA, 100 mg NaCl, 140 mg WPC 70. One Glutamine capsule contained 500 mg glutamine. The amino acids that were taken are as described in Table 1."}, "growing laying hens": {"system": "growing laying hens", "test": "Weight and weight gain of growing laying hens treated with IAA (Example 8)", "type": "in vivo", "design": "unit not given here", "description": "Growing laying hens of 10 weeks old were selected in the flock to create four groups of ten hens: • Group GB: Ten normally growing hens, not treated • Group GNA: Ten normally growing hens, treated with 10 mg/kg/LW IAA (LW=live weight) • Group SB: Ten poorly growing hens, not treated • Group SNA: 10 poorly growing hens, treated with 10 mg/kg/LW IAA.\nIn this example, not only the poor-growing birds were treated, but also normally growing animals. The birds receive daily forced oral treatment with a capsule that contains IAA. The different groups are weighed every week. Treatment is continued at least until the hens start laying, to see if the period of onset of laying is influenced by the treatment."}, "IGF-1": {"system": "IGF-1", "test": "Plasma IGF-1 level in eight CFS patients treated with the composition (Example 1)", "type": "in vivo, human", "description": "Eight patients suffering from severe chronic fatigue syndrome (CFS) were studied over a 5- to 7-month period. In this period, they were treated with a therapeutical composition of the disclosure in the form of a food supplement, which comprised IAA as the active ingredient. All subjects were unable to do their job or to perform very light physical exercise.\nBefore entering the study, the subjects underwent a careful medical examination to exclude any other disease. Blood was assayed for insulin-like growth factor 1 (IGF-1) and its major binding protein IGF-BP3 was sampled at 0, 1, 3 and 5 to 7 months of treatment because the total amount of IGF-1 in serum minus the amount of IGF-BP3 is the amount of free IGF-1. Free IGF-1 is the active serum fraction. Also at 0, 1, 3 and 5 to 7 months, job participation and physical activities were registered and calculated as percentage of normal, before disease pattern.\nEight women varying in age from 25 to 53 years having severe complaints of fatigue that made it impossible to function normally, both at work and in free time. All reported an excessive need for sleep, which was never refreshing even though it was prolonged (more than 12 hours). After excluding all other diseases and infections, they were all diagnosed for CFS.\nBlood samples of 20 ml were taken and liver and kidney functions, the red and white hemogram, IGF-1 and IGF-BP3 determined. The patients took 1000 mg/day (corresponding to 40 mg IAA and 960 mg salt and WPC 70) of the composition of the disclosure for 4 weeks. After this, the dosage was reduced by 250 mg (corresponding to 10 mg IAA) every 2 weeks to 750 mg/day, 500 mg/day 250 mg/day, respectively. […]\nAt the start of the study and at each check-up point, the work participation and physical activity pattern were scored on a scale from 1 to 10 and plotted as the percentage of the patient's normal activities. […] IGF-BP3 was determined by means of an immunoassay (DSL-5600 ACTIVE™, DSL Deutschland GmbH, Germany) having an intra-assay variance of 4.4% and an inter-assay variance of 6.6%. […]"}, "IgF-BP3/IgF-1": {"system": "IgF-BP3/IgF-1", "test": "Ratio IgF-BP3/IgF-1 in type 2 diabetic patients during medication with IAA (Example 4)", "type": "in vivo, human", "settings": "for Ratio IgF-BP3/IgF-1: acetic acid", "description": "Five male type 2 diabetic patients took part in the study. They were all very difficult to regulate. When the study started, the average HbA1c was to be approximately 9.0%. The patients had no other clinical problems. In addition, the IgF-BP3/IgF-1 ratio had to be over 10. The age of the subjects were between 45 years and 75 years with an average of 58. The period of the investigation was 6 months. […] The following parameters were checked: IGF-1 and IGF-PB-3. Also, at the start, safety parameters (liver tests, hematology) were determined. Every 8 weeks, HbA1c was determined.\nAll samples from one subject were analyzed in the same run to avoid intra-assay variability. Quantification of IGF-1 was performed using an immunoradiometric assay (IRMA) (DSL-5600 ACTIVE™, DSL, Germany GmbH, Germany). Intra- and inter-assay variance was: 4.0% and 9.2% and 1.5% for IGF-1. The Hba1c was analyzed on HPLC Menarine HA 81-60.\nThe total work output of every subject was calculated with a 2-way ANOVA for repeated measures and the hormone values were analyzed with the Wilcoxon test. In all cases, a p value of <0.05 was accepted as significant."}}, "note": "“And” between values parts separate entries of the source, which are not always exact repeats. Identical values can stand only once.", "data": [{"substance": "indole acetic acid [IAA]", "values": [{"measurement": "performance of athletes at the end", "setting": "athletes", "value": "performed better"}, {"measurement": "weight", "setting": "growing laying hens; group GNA (normally growing hens, 10 mg/kg/LW IAA daily oral capsule), weekly weighing 1", "value": 740}, {"measurement": "total weight gain", "setting": "growing laying hens; group GNA, untreated GB 407.5", "value": 482}, {"measurement": "weight", "setting": "growing laying hens; group GNA, weekly weighing 2", "value": 883}, {"measurement": "weight", "setting": "growing laying hens; group GNA, weekly weighing 3", "value": 996}, {"measurement": "weight", "setting": "growing laying hens; group GNA, weekly weighing 4", "value": 1095}, {"measurement": "weight", "setting": "growing laying hens; group GNA, weekly weighing 5", "value": 1222}, {"measurement": "weight gain", "setting": "growing laying hens; group GNA, weighing 2 vs 1", "value": 143}, {"measurement": "weight gain", "setting": "growing laying hens; group GNA, weighing 3 vs 2", "value": 113}, {"measurement": "weight gain", "setting": "growing laying hens; group GNA, weighing 4 vs 3", "value": 99}, {"measurement": "weight gain", "setting": "growing laying hens; group GNA, weighing 5 vs 4", "value": 127}, {"measurement": "weight", "setting": "growing laying hens; group SNA (poorly growing hens, 10 mg/kg/LW IAA daily oral capsule), weekly weighing 1", "value": 489.5}, {"measurement": "total weight gain", "setting": "growing laying hens; group SNA, untreated SB 408.5", "value": 505.5}, {"measurement": "weight", "setting": "growing laying hens; group SNA, weekly weighing 2", "value": 598}, {"measurement": "weight", "setting": "growing laying hens; group SNA, weekly weighing 3", "value": 718}, {"measurement": "weight", "setting": "growing laying hens; group SNA, weekly weighing 4", "value": 885}, {"measurement": "weight", "setting": "growing laying hens; group SNA, weekly weighing 5", "value": 995}, {"measurement": "weight gain", "setting": "growing laying hens; group SNA, weighing 2 vs 1", "value": 108.5}, {"measurement": "weight gain", "setting": "growing laying hens; group SNA, weighing 3 vs 2", "value": 120}, {"measurement": "weight gain", "setting": "growing laying hens; group SNA, weighing 4 vs 3", "value": 167}, {"measurement": "weight gain", "setting": "growing laying hens; group SNA, weighing 5 vs 4", "value": 110}, {"measurement": "plasma IGF-1 level (mean±SD)", "setting": "IGF-1; after 1 month", "value": "29.5 ± 8.2", "unit": "nmol/L"}, {"measurement": "plasma IGF-1 level (mean±SD)", "setting": "IGF-1; after 5 months of treatment", "value": "35 ± 10", "unit": "nmol/L"}, {"measurement": "plasma IGF-1 level (mean±SD)", "setting": "IGF-1; before treatment (baseline)", "value": "18 ± 5", "unit": "nmol/L"}, {"measurement": "Ratio IgF-BP3/IgF-1, average", "setting": "IgF-BP3/IgF-1; Month 0 (start), average of 5 subjects", "value": 10.6}, {"measurement": "Ratio IgF-BP3/IgF-1", "setting": "IgF-BP3/IgF-1; Month 0 (start), individual subjects", "value": "10.2 and 10.6 and 10.8 and 11.3 and 10.0"}, {"measurement": "Ratio IgF-BP3/IgF-1, average", "setting": "IgF-BP3/IgF-1; Month 1, average of 5 subjects", "value": 9.9}, {"measurement": "Ratio IgF-BP3/IgF-1", "setting": "IgF-BP3/IgF-1; Month 1, individual subjects", "value": "9.7 and 10.1 and 9.9 and 10.8 and 8.9"}, {"measurement": "Ratio IgF-BP3/IgF-1, average", "setting": "IgF-BP3/IgF-1; Month 2, average of 5 subjects", "value": 8.9}, {"measurement": "Ratio IgF-BP3/IgF-1", "setting": "IgF-BP3/IgF-1; Month 2, individual subjects", "value": "9.0 and 8.6 and 9.4 and 9.2 and 8.5"}, {"measurement": "Ratio IgF-BP3/IgF-1, average", "setting": "IgF-BP3/IgF-1; Month 3, average of 5 subjects", "value": 8.5}, {"measurement": "Ratio IgF-BP3/IgF-1", "setting": "IgF-BP3/IgF-1; Month 3, individual subjects", "value": "8.6 and 8.3 and 8.9 and 8.8 and 8.1"}, {"measurement": "Ratio IgF-BP3/IgF-1, average", "setting": "IgF-BP3/IgF-1; Month 4, average of 5 subjects", "value": 7.9}, {"measurement": "Ratio IgF-BP3/IgF-1", "setting": "IgF-BP3/IgF-1; Month 4, individual subjects", "value": "8.0 and 7.6 (2×) and 8.3 and 7.8"}, {"measurement": "Ratio IgF-BP3/IgF-1, average", "setting": "IgF-BP3/IgF-1; Month 5, average of 5 subjects", "value": 7.2}, {"measurement": "Ratio IgF-BP3/IgF-1", "setting": "IgF-BP3/IgF-1; Month 5, individual subjects", "value": "7.2 (2×) and 6.8 and 7.6 and 7.3"}, {"measurement": "Ratio IgF-BP3/IgF-1, average", "setting": "IgF-BP3/IgF-1; Month 6, average of 5 subjects", "value": 6.8}, {"measurement": "Ratio IgF-BP3/IgF-1", "setting": "IgF-BP3/IgF-1; Month 6, individual subjects", "value": "6.6 and 6.3 and 7.2 and 6.9 (2×)"}]}]}
